Measurements taken from patent publication US7659263B2, “Thienopyrrole compound and use thereof as HCV polymerase inhibitor” (Japan Tobacco Inc., priority 2004, dated 2010).
pIC50: −log10 of the molar value. Where a name gives a salt, the structure may show the parent alone.

What was measured:
[1] = molecular target: T1, NS5B 1b (Hepatitis C virus genotype 1b, UniProt P26663); experiment: Assay of enzyme (HCV polymerase) inhibitory activity, NS5B 1b; type: biochemical
T1 construct: a region encoding NS5B (J Virol 1991 March, 65(3), 1105-13, 544 amino acids after deletion of 47 amino acids on the C-terminal); 6 His (C); made in house; host or cells: Escherichia coli
Text: The evaluation of the HCV polymerase inhibitory activity of the compound of the present invention is explained in the following. This polymerase is an enzyme coded for by the non-structural protein region called NS5B on the genome RNA of HCV (EMBO J., 15:12-22, 1996).
i) Preparation of enzyme (HCV polymerase)
Using, as a template, a cDNA clone corresponding to the full length genome RNA of HCV BK strain obtained from the blood of a patient with hepatitis C, a region encoding NS5B (J Virol 1991 March, 65(3), 1105-13, 544 amino acids after deletion of 47 amino acids on the C-terminal) was amplified by PCR. The objective gene was prepared by adding a 6 His tag {base pair encoding 6 continuous histidine (His)} to the 3′ end thereof and transformed to Escherichia coli. The Escherichia coli capable of producing the objective protein was cultured. The obtained cells were suspended in a buffer solution and crushed in a microfluidizer. The supernatant was obtained by centrifugation and applied to various column chromatographys {mono-S, Sephacryl S-200 (Pharmacia)}, inclusive of metal chelate chromatography, to give a standard enzyme product.
ii) Synthesis of Substrate RNA
Using a synthetic primer designed based on the sequence of HCV genomic 3′ untranslated region, a DNA fragment (148 bp) containing polyU and 3′X sequence was entirely synthesized and cloned into plasmid pBluescript SK II(+) (Stratagene). The cDNA encoding full length NS5B, which was prepared in i) above, was digested with restriction enzyme KpnI to give a cDNA fragment containing the nucleotide sequence of from the restriction enzyme cleavage site to the termination codon. This cDNA fragment was inserted into the upstream of 3′ untranslated region of the DNA in pBluescript SK II(+) and ligated. The about 450 bp inserted DNA sequence was used as a template in the preparation of substrate RNA. This plasmid was cleaved immediately after the 3′X sequence, linearized and purified by phenol-chloroform treatment and ethanol precipitation to give DNA.
RNA was synthesized (37° C., 3 hr) by run-off method using this purified DNA as a template, a promoter of pBluescript SK II(+), MEGAscript RNA synthesis kit (Ambion) and T7 RNA polymerase. DNase I was added and the mixture was incubated for 1 hr. The template DNA was removed by decomposition to give a crude RNA product. This crude product was treated with phenol-chloroform and purified by ethanol precipitation to give the objective substrate RNA.
This RNA was applied to formaldehyde denaturation agarose gel electrophoresis to confirm the quality thereof and preserved at −80° C. iii) Assay of enzyme (HCV polymerase) inhibitory activity A test substance (compound of the present invention) and a reaction mixture (30 μl) having the following composition were reacted at 25° C. for 90 min.
10% Trichloroacetic acid at 4° C. and 1% sodium pyrophosphate solution (150 μl) were added to this reaction mixture to stop the reaction. The reaction mixture was left standing in ice for 15 min to insolubilize RNA. This RNA was trapped on a glass filter (Whatman GF/C and the like) upon filtration by suction. This filter was washed with a solution containing 1% trichloroacetic acid and 0.1% sodium pyrophosphate, washed with 90% ethanol and dried. A liquid scintillation cocktail (Packard) was added and the radioactivity of RNA synthesized by the enzyme reaction was measured on a liquid scintillation counter.
The HCV polymerase inhibitory activity (IC50) of the compound of the present invention was calculated from the values of radioactivity of the enzyme reaction with and without the 20 test substance. […]

[2] = molecular target: T2, NS5B 1a (Hepatitis C virus genotype 1a, UniProt P27958); experiment: Assay of enzyme (HCV polymerase) inhibitory activity, NS5B 1a; type: biochemical; settings: HCV polymerase NS5B 1a; [3H]UTP incorporation, 25° C., 90 min
T2 construct: NS5B 1a
T2 sequence (P27958 2421-3011): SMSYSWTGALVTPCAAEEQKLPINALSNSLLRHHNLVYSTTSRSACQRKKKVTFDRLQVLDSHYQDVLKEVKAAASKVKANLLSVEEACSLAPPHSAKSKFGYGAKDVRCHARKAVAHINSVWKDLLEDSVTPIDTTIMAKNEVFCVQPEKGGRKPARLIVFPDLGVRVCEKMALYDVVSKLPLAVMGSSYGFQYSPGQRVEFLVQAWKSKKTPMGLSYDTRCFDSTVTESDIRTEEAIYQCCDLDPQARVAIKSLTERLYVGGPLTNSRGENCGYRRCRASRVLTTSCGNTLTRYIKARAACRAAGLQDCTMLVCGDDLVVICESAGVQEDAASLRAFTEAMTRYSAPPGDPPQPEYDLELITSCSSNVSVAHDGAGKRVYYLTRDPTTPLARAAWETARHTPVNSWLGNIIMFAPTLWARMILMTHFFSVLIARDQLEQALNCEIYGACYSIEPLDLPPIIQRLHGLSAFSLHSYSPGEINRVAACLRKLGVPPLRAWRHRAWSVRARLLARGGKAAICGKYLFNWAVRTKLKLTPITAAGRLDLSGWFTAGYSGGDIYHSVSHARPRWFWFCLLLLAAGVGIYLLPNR

T1 sequence (P26663 2420-2963): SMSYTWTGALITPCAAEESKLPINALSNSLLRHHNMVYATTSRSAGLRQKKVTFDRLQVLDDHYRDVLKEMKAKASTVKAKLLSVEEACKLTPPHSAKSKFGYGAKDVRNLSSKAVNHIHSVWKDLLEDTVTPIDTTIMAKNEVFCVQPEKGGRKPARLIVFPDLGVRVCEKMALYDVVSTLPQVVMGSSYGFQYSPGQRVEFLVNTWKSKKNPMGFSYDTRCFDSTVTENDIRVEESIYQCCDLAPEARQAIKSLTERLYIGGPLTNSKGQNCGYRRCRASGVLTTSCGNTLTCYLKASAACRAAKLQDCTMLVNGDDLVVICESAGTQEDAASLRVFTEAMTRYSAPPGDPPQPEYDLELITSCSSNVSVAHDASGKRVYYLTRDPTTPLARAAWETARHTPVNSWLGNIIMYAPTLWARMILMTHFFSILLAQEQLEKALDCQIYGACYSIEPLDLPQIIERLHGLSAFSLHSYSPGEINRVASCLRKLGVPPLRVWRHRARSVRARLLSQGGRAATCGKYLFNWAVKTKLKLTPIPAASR

Compound	pIC50 [1]	pIC50 [2]
COC(=O)N1CCCC(Oc2ccc3c(c2)OCCn2c-3c(C3CCCCC3)c3sc(C(=O)O)cc32)C1 (centres unmarked) [Example 17, 11-cyclohexyl-8-(1-methoxycarbonylpiperidin-3-yloxy)-4,5-dihydro-6-oxa-1-thia-3b-azabenzo[e]cyclopenta[a]azulene-2-carboxylic acid]	7.00 to 8.00	7.00 to 8.00
CCOc1ccc2c(c1)N(C)CCn1c-2c(C2CCCCC2)c2sc(C(=O)NC3(C(=O)Nc4ccc(/C=C/C(=O)O)cc4)CCC3)cc21 [Example 45, (E)-3-[4-({1-[(11-cyclohexyl-8-ethoxy-6-methyl-5,6-dihydro-4H-1-thia-3b,6-diazabenzo[e]cyclopenta[a]azulene-2-carbonyl)amino]cyclobutanecarbonyl}amino)phenyl]acrylic acid]	7.00 to 8.00	7.00 to 8.00
O=C(O)c1cc2c(s1)c(C1CCCCC1)c1n2CCN(CCN2CCCCCCC2)c2ccccc2-1 [Example 21, 6-[2-(azocan-1-yl)ethyl]-11-cyclohexyl-5,6-dihydro-4H-1-thia-3b,6-diazabenzo[e]cyclopenta[a]azulene-2-carboxylic acid dihydrochloride]	> 8.00	7.00 to 8.00
CCN1CCN(C(=O)CN2CCn3c(c(C4CCCCC4)c4sc(C(=O)O)cc43)-c3ccc(Cl)cc32)CC1 [Example 36, 8-chloro-11-cyclohexyl-6-[2-(4-ethylpiperazin-1-yl)-2-oxoethyl]-5,6-dihydro-4H-1-thia-3b,6-diazabenzo[e]cyclopenta[a]azulene-2-carboxylic acid dihydrochloride]	7.00 to 8.00	7.00 to 8.00
O=C(O)c1cc2c(s1)c(C1CCCCC1)c1n2CCN(CCN2CCCOCC2)c2ccccc2-1 [Example 24, 11-cyclohexyl-6-[2-(1,4-oxazepan-4-yl)ethyl]-5,6-dihydro-4H-1-thia-3b,6-diazabenzo[e]cyclopenta[a]azulene-2-carboxylic acid dihydrochloride]	7.00 to 8.00	7.00 to 8.00
CC(C)(C)OC(=O)N1CCN(CCN2CCn3c(c(C4CCCCC4)c4sc(C(=O)O)cc43)-c3ccc(Cl)cc32)CC1 [Example 34, 6-[2-(4-tert-butoxycarbonylpiperazin-1-yl)ethyl]-8-chloro-11-cyclohexyl-5,6-dihydro-4H-1-thia-3b,6-diazabenzo[e]cyclopenta[a]azulene-2-carboxylic acid hydrochloride]	7.00 to 8.00	7.00 to 8.00
O=C(O)c1cc2c(s1)c(C1CCCCC1)c1n2CCN(CCN2CCCOCC2)c2cc(Cl)ccc2-1 [Example 32, 8-chloro-11-cyclohexyl-6-[2-(1,4-oxazepan-4-yl)ethyl]-5,6-dihydro-4H-1-thia-3b,6-diazabenzo[e]cyclopenta[a]azulene-2-carboxylic acid dihydrochloride]	> 8.00	7.00 to 8.00
CS(=O)(=O)N1CCN(c2ccc(N3CCCC3=O)cc2COc2ccc3c(c2)OCCn2c-3c(C3CCCCC3)c3sc(C(=O)O)cc32)CC1 [Example 18, 11-cyclohexyl-8-[2-(4-methanesulfonylpiperazin-1-yl)-5-(2-oxopyrrolidin-1-yl)benzyloxy]-4,5-dihydro-6-oxa-1-thia-3b-azabenzo[e]cyclopenta[a]azulene-2-carboxylic acid]	> 8.00	> 8.00
Cc1ccc2c(c1)N(CCN1CCCCCCC1)CCn1c-2c(C2CCCCC2)c2sc(C(=O)O)cc21 [Example 25, 6-[2-(azocan-1-yl)ethyl]-11-cyclohexyl-8-methyl-5,6-dihydro-4H-1-thia-3b,6-diazabenzo[e]cyclopenta[a]azulene-2-carboxylic acid dihydrochloride]	> 8.00	7.00 to 8.00
COCC[C@@H]1CCCN(CCN2CCn3c(c(C4CCCCC4)c4sc(C(=O)O)cc43)-c3ccccc32)C1 [Example 23, (S)-11-cyclohexyl-6-{2-[3-(2-methoxyethyl)piperidin-1-yl]ethyl)-5,6-dihydro-4H-1-thia-3b,6-diazabenzo[e]cyclopenta[a]azulene-2-carboxylic acid dihydrochloride]	7.00 to 8.00	7.00 to 8.00
Cc1ccc2c(c1)N(CCN1CCN(C(=O)OC(C)(C)C)CC1)CCn1c-2c(C2CCCCC2)c2sc(C(=O)O)cc21 [Example 33, 6-[2-(4-tert-butoxycarbonylpiperazin-1-yl)ethyl]-11-cyclohexyl-8-methyl-5,6-dihydro-4H-1-thia-3b,6-diazabenzo[e]cyclopenta[a]azulene-2-carboxylic acid hydrochloride]	7.00 to 8.00	7.00 to 8.00
CCN1CCN(C(=O)CN2CCn3c(c(C4CCCCC4)c4sc(C(=O)O)cc43)-c3ccccc32)CC1 [Example 14, 11-cyclohexyl-6-[2-(4-ethylpiperazin-1-yl)-2-oxoethyl]-5,6-dihydro-4H-1-thia-3b,6-diazabenzo[e]cyclopenta[a]azulene-2-carboxylic acid dihydrochloride]	7.00 to 8.00	7.00 to 8.00
COCC[C@@H]1CCCN(CCN2CCn3c(c(C4CCCCC4)c4sc(C(=O)O)cc43)-c3ccc(C)cc32)C1 [Example 27, (S)-11-cyclohexyl-6-{2-[3-(2-methoxyethyl)piperidin-1-yl]ethyl}-8-methyl-5,6-dihydro-4H-1-thia-3b,6-diazabenzo[e]cyclopenta[a]azulene-2-carboxylic acid dihydrochloride]	7.00 to 8.00	7.00 to 8.00
Cc1ccc2c(c1)N(CCN1CCCCC1)CCn1c-2c(C2CCCCC2)c2sc(C(=O)O)cc21 [Example 19, 11-cyclohexyl-8-methyl-6-[2-(piperidin-1-yl)ethyl]-5,6-dihydro-4H-1-thia-3b,6-diazabenzo[e]cyclopenta[a]azulene-2-carboxylic acid dihydrochloride]	> 8.00	7.00 to 8.00
CCOc1ccc2c(c1)OCCn1c-2c(C2CCCCC2)c2sc(C(=O)NC3(C(=O)Nc4ccc(/C=C/C(=O)O)cc4)CCC3)cc21 [Example 43, (E)-3-[4-({1-[(11-cyclohexyl-8-ethoxy-4,5-dihydro-6-oxa-1-thia-3b-azabenzo[e]cyclopenta[a]azulene-2-carbonyl)amino]cyclobutanecarbonyl}amino)phenyl]acrylic acid]	7.00 to 8.00	7.00 to 8.00
CC(C)(C)OC(=O)N1CCN(CCN2CCn3c(c(C4CCCCC4)c4sc(C(=O)O)cc43)-c3ccccc32)CC1 [Example 11, 6-[2-(4-tert-butoxycarbonylpiperazin-1-yl)ethyl]-11-cyclohexyl-5,6-dihydro-4H-1-thia-3b,6-diazabenzo[e]cyclopenta[a]azulene-2-carboxylic acid hydrochloride]	7.00 to 8.00	7.00 to 8.00
CC1CCCN(CCN2CCn3c(c(C4CCCCC4)c4sc(C(=O)O)cc43)-c3ccccc32)C1 (centres unmarked) [Example 22, 11-cyclohexyl-6-[2-(3-methylpiperidin-1-yl)ethyl]-5,6-dihydro-4H-1-thia-3b,6-diazabenzo[e]cyclopenta[a]azulene-2-carboxylic acid dihydrochloride]	7.00 to 8.00	7.00 to 8.00
CN1CCn2c(c(C3CCCCC3)c3sc(C(=O)NC4(C(=O)Nc5ccc(/C=C/C(=O)O)cc5)CCC4)cc32)-c2ccc(Cl)cc21 [Example 39, (E)-3-[4-({1-[(8-chloro-11-cyclohexyl-6-methyl-5,6-dihydro-4H-1-thia-3b,6-diazabenzo[e]cyclopenta[a]azulene-2-carbonyl)amino]cyclobutanecarbonyl}amino)phenyl]acrylic acid]	7.00 to 8.00	7.00 to 8.00
O=C(O)c1cc2c(s1)c(C1CCCCC1)c1n2CCN(CCN2CCCCC2)c2ccccc2-1 [Example 8, 11-cyclohexyl-6-[2-(piperidin-1-yl)ethyl]-5,6-dihydro-4H-1-thia-3b,6-diazabenzo[e]cyclopenta[a]azulene-2-carboxylic acid dihydrochloride]	7.00 to 8.00	7.00 to 8.00
